According to article PMC5612938, “A multiple biomarker assay for quality assessment of botanical drugs using a versatile microfluidic chip” (Scientific Reports, 2017):
Marks after values point to notes of the source that are not given here.

Legend:
[1] = target: T1, Thrombin (from human plasma) (Homo sapiens, UniProt P00734); assay: on-chip affinity screening, binding degree by LC-MS peak area vs protein-free control (thrombin); details: for thrombin; [(As − Ac)/As] × 100, sample vs protein-free control, EIC peak area
T1 construct: Thrombin (from human plasma); purchased Sigma-Aldrich; host or cells: human plasma
Excerpt: In addition to quality assessment, the microfluidic chip can also function as “affinity chromatography” to identify bioactive constituents from botanical drugs in a convenient and efficient manner. After the bioassay, the bound phytochemicals were dissociated from the enzymes and accurately identified by LC-MS. The material used for the chambers in microfluidic system, polydimethylsiloxane (PDMS), is apt to adsorb small molecules nonspecifically, thus a protein-free control was applied to reflect the degree of nonspecific binding of compounds to the chip. Peak areas were obtained from the extracted ion chromatography (EIC) in an ion-trap mass spectrometry (IT-MS), and binding degree (binding degree % = [(As − Ac)/As] × 100, where As and Ac were the peak area in the sample and control, respectively) was calculated to indicate binding specificity. […] All these peaks were unambiguously confirmed via comparisons with chemical standards in terms of retention time and mass spectra (Table 2), and five thrombin inhibitors (danshensu, salvianolic acid B, salvianolic acid C, rosmarinic acid and ginsenoside Rg1) and six ACE inhibitors (astragaloside IV, ononin, formononetin, calycosin, danshensu and salvianolic acid B) were preliminarily identified. […] Enzyme inhibition assays of these hit compounds were then performed to verify the screening results. […] Compounds showing an inhibition rate over 70% were subjected to IC50 measurement.
(§1) MBs (10 mg/mL) were diluted 10 times in PB or Tris-HCl buffer, and 10 μL of the diluted MBs (1 mg/mL) were injected into one channel of the chip using a syringe infusion pump (Harvard Apparatus, USA) and retained by an external magnet. Then, 10 μL of thrombin or ACE solution was added and incubated with MBs for two hours at room temperature to form enzyme-MB complexes. The magnet was manually controlled to move MBs back and forth to enhance the ratio of reaction. Subsequently, MBs were washed twice in assay buffer and magnetically transferred to the other channel through the fluidic bridge, whose opening and closing was controlled by a pneumatic valve. Next, 10 μL of sample solutions of tested drug and 10 μL of enzymatic substrate were sequentially infused to the channel by the pump and incubated with the enzyme. When the enzymatic reaction was finished, the MBs were retained in the channel, and air was injected into the channel from the inlet using a syringe to push all the reacted solution to a 384-well plate. The absorbance of the solution was then monitored at 405 nm (for S-2238) or 340 nm (for FAPGG) using an Infinite F200 spectrophotometer (Tecan, Männedorf, Switzerland). Moreover, after detection, the reaction channel was washed three times by assay buffer to remove unbound constituents. 20 μL of 80% aqueous methanol was then injected and incubated with MBs for one hour to dissociate the bound constituents. The resulting solutions of replicates were combined, evaporated by a centrifugal evaporator, reconstituted in 80% aqueous methanol, centrifuged at 10,000 rpm for 10 min, and analyzed by LC-MS for chemical identification.
An Agilent 1100 HPLC system (Agilent Technologies, Waldbronn, Germany) coupled with an LCQ Deca XP^plus IT-MS (Thermo Finnigan, San Jose, CA, USA) equipped with an electrospray ionization (ESI) interface was employed for structure elucidation of the bounded constituents. […]

[2] = target: T1, Thrombin (from human plasma); assay: on-chip thrombin inhibition assay (S-2238 hydrolysis, absorbance 405 nm); assay type: biochemical; parameters: key to IC50 (μM) or inhibition rate: /: No obvious inhibition observed; details: for thrombin inhibition (in words): at tested concentrations
Procedure: To enhance the performance of the on-chip assay, experimental parameters such as concentrations of enzymes and substrates, substrate reaction time, and incubation time of samples and enzymes were stepwise optimized. The activity of thrombin was determined by measuring the hydrolysis of chromogenic substrate S-2238 (HD-Phe-Pip-Arg-pNA) at 405 nm. As depicted in Fig. 2a, the absorbance increased rapidly along with the elevated concentrations of thrombin, while it reached a plateau at 0.5 U/mL. […] Moreover, it was clear from Fig. 2d that the maximum inhibitory effect of QSYQ sample (I1 of Table 1 in this assay) on thrombin was observed after 60 min of incubation. Therefore, to achieve favorable response and prevent signal saturation, optimal assay conditions for thrombin were determined to be 0.2 U/mL, 0.31 mM, 30 min and 60 min for the final concentrations of thrombin and S-2238, substrate reaction time and incubation time, respectively. […] In this assay, the concentrations of ACE and FAPGG were finally set at 0.027 U/mL and 0.72 mM, where the background value was lower and the reaction time was relatively shorter (30 min).
The optimized protocol was first applied to assess the quality of 11 batches of QSYQ intermediates (Table 1). Enzyme inhibition (in percentages) was employed as an indicator of drug quality and calculated according to the following equations: thrombin inhibition (%) = [1 − (AQSYQ/Ablank)] × 100; ACE inhibition (%) = [1 − (ΔAQSYQ/ΔAblank)] × 100; where AQSYQ and Ablank were the absorbance of the test sample and the blank sample after the enzymatic reaction (the background value was subtracted), and ΔAQSYQ and ΔAblank were the absorbance decrease between 0 min and 30 min of the samples. A scatter plot was generated to display the inhibition result of thrombin and ACE simultaneously. […] Moreover, artificial abnormal samples I6, I7 and I8, each with one abnormal (pre-extracted) herb, presented relatively lower inhibitions compared with I1.
Thrombin (from human plasma), ACE (from rabbit lung), FAPGG and captopril were purchased from Sigma-Aldrich (St. Louis, USA). S-2238 was obtained from Aglyco (Beijing, China). AEBSF-HCl was purchased from Selleckchem (Houston, USA). Trizma base (Tris) was obtained from Sangon Biotech (Shanghai, China) and dimethyl sulfoxide (DMSO) from J&K Scientific (Beijing, China). All other chemicals were purchased from Sinopharm Chemical (Shanghai, China) unless otherwise indicated. 0.2 M Phosphate buffer (PB, pH 6.5), and 50 mM Tris-HCl buffer (200 mM NaCl, pH 8.3) were prepared as assay buffers for thrombin and ACE, respectively.
as §1, with “20 μL of 80% aqueous methanol was then injected and incubated with MBs for one hour to dissociate the bound constituents. The resulting solutions of replicates were combined, evaporated by a centrifugal evaporator, reconstituted in 80% aqueous methanol, centrifuged at 10,000 rpm for 10 min, and analyzed by LC-MS for chemical identification.” left out

Compound | Binding degree (%) [1] | IC50 (μM) or inhibition rate ([2]; for thrombin, symbol / = no obvious inhibition) | thrombin inhibition (in words) [2] | IC50 ([2]; for thrombin) [µM]
CC(C)=CCC[C@](C)(O[C@@H]1O[C@H](CO)[C@@H](O)[C@H](O)[C@H]1O)[C@H]1CC[C@]2(C)[C@@H]1[C@H](O)C[C@@H]1[C@@]3(C)CC[C@H](O)C(C)(C)[C@@H]3[C@@H](O[C@@H]3O[C@H](CO)[C@@H](O)[C@H](O)[C@H]3O)C[C@]12C [Ginsenoside Rg1] | 20.6^c % | /^g |  | 
O=C(/C=C/c1ccc(O)c(O)c1)O[C@H](Cc1ccc(O)c(O)c1)C(=O)O [Rosmarinic acid] | 67.4^c % |  | good thrombin inhibitions | 92
O=C(/C=C/c1ccc(O)c2oc(-c3ccc(O)c(O)c3)cc12)O[C@H](Cc1ccc(O)c(O)c1)C(=O)O [Salvianolic acid C] | 100^c % |  | good thrombin inhibitions | 180
